Reference: patent US20250197409A1, “BIFUNCTIONAL COMPOUND AND PHARMACEUTICAL COMPOSITION COMPRISING THE BIFUNCTIONAL COMPOUND, AND METHOD FOR TREATING ANDROGEN RECEPTOR RELATED DISEASE BY USING THE SAME” (ANHORN MEDICINES CO., LTD., priority 2022, published 2025)

Tested on: Androgenetic Alopecia (AGA) Mice Model
Assay: In vivo hair regrowth efficacy in androgenetic alopecia (AGA) mice model
Conditions: DHT pre-treated male C57BL/6 mice, topical 3.5 μg/cm2/day once daily, day 20; DHT+vehicle group 3.5
Description: Seven-week old male C57BL/6 mice (with black fur) purchased from BioLASCO Taiwan Co., Ltd. were grouped 6 to 8 mice per cage, and intraperitoneally administered with dihydrotestosterone (DHT) (1 mg/day, dissolved in corn oil) or corn oil alone once daily for four days. DHT is an agonist to androgen receptors, which can be used to induce symptoms of androgenetic alopecia.
Four days later, the dorsal region of the mice was depilated with hair removal cream (Nair Sensitive Hair Removal Cream, 100 mg to 200 mg per mouse). After hair removal, the skin color was recorded by photographs with a resolution of 4032*3024 pixel (day 1, D1). On the next day (D2), the test solutions of the compound 29 and compound 33 in a vehicle were prepared (3.5 μg/cm^2/day), and each test solution or vehicle alone was topically administered on the depilated region once daily for 20 days. The hair removal cream, the test solution and the vehicle were separately rubbed into the dorsal region of mice. The photographs underwent analysis using a self-developed software that utilized auto-image segmentation, primarily focusing on the border of the depilation area. This segmentation process involved classifying different regions within the images. […] The hair regrowth efficacy could be evaluated by the photographs and/or the skin color score.

Row | Compound | average skin color score (1 = depilated skin, 8 = fully regrown hair)
1 | CCn1c2c(c3ccc(OCCCN4CCN(c5ccc(C(=O)N[C@H]6CC[C@H](Oc7ccc(C#N)c(Cl)c7)CC6)nn5)CC4)cc31)C(=O)N(C1CCC(=O)NC1=O)C2=O (some centres unmarked) [Compound 29] | 8
2 | CCn1c2c(c3ccc(OCCN4CCN(c5ccc(C(=O)N[C@H]6CC[C@H](Oc7ccc(C#N)c(Cl)c7)CC6)nn5)CC4)cc31)C(=O)N(C1CCC(=O)NC1=O)C2=O (some centres unmarked) [Compound 33] | 6.5

Molecular target: T1, androgen receptor (Homo sapiens, UniProt P10275, T878A)
T1 construct: host or cells: LNCaP.FGC
Assay: Androgen receptor degradation assay using Western blot analysis
Assay type: cell-based
Conditions: 24 h, read-out: Androgen Receptor Remaining (%), LNCaP.FGC cells, 100 nM, 24 hr, normalized to GAPDH, untreated cells = 100%
Summary of the method: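 LNCaP.FGC cells (2×10^5/well) treated with 10-fold serial dilutions in RPMI from 100 nM stock; untreated cells as negative control. AR Western signal normalized to GAPDH, expressed as % remaining versus untreated (100%). DC50 derived from calibration curve of serial dilutions.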

T1 sequence (P10275 whole entry T878A): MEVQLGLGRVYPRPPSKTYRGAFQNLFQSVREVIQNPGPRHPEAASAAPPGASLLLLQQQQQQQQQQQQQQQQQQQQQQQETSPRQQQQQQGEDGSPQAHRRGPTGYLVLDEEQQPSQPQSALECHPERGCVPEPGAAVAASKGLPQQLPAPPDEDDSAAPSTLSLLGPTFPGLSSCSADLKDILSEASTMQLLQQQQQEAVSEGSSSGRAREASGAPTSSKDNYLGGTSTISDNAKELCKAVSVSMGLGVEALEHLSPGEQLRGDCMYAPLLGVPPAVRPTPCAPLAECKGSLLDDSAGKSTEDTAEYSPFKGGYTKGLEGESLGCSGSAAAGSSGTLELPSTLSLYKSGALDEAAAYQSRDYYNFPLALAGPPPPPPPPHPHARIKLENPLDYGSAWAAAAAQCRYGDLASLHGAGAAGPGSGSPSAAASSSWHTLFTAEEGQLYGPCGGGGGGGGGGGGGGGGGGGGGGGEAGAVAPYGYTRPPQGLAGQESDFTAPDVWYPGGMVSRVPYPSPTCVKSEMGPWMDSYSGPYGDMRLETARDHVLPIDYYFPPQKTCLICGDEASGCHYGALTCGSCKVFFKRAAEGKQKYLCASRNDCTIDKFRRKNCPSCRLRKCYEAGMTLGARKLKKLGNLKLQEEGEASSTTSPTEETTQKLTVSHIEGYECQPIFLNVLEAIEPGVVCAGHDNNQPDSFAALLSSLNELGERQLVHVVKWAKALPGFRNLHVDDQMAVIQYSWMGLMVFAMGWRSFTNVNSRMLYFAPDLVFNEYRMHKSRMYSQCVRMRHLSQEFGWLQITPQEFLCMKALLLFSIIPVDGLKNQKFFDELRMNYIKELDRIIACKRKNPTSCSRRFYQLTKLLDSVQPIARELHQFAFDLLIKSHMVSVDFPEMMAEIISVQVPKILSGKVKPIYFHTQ
T1 sequence (Q96SW2 whole entry partner): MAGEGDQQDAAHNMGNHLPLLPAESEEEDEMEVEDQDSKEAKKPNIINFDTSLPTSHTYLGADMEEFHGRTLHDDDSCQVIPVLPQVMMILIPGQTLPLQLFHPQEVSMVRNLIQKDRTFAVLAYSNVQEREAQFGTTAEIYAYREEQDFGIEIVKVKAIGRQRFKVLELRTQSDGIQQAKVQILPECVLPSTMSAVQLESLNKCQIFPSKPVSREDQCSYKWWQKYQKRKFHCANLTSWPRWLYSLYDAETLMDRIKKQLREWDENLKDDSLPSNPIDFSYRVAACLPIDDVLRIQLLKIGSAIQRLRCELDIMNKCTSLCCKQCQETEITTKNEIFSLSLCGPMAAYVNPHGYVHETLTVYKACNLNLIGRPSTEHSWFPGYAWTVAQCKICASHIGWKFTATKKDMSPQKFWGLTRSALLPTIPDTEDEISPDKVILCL

Row | Compound | remaining activity at 0.1 µM [%]
3 | CCn1c2c(c3ccc(OCCCN4CCN(c5ccc(C(=O)N[C@H]6CC[C@H](Oc7ccc(C#N)c(Cl)c7)CC6)nn5)CC4)cc31)C(=O)N(C1CCC(=O)NC1=O)C2=O (some centres unmarked) [Compound 29] | 31
4 | CCn1c2c(c3ccc(OCCN4CCN(c5ccc(C(=O)N[C@H]6CC[C@H](Oc7ccc(C#N)c(Cl)c7)CC6)nn5)CC4)cc31)C(=O)N(C1CCC(=O)NC1=O)C2=O (some centres unmarked) [Compound 33] | 27

Same assay, conditions: LNCaP.FGC cells, serial 10x dilutions from 100 nM; read-out: AR DC50 (concentration needed for 50% AR degradation)

Row | Compound | DC50 [nM]
5 | Cn1c2c(c3ccc(OCCCN4CCC5(CC4)CCN(c4ccc(C(=O)N[C@H]6CC[C@H](Oc7ccc(C#N)c(Cl)c7)CC6)nn4)CC5)cc31)C(=O)N(C1CCC(=O)NC1=O)C2=O (some centres unmarked) [Compound 194] | 10 to 25
6 | Cn1c2c(c3ccc(OCCN4CCC5(CC4)CCN(c4ccc(C(=O)N[C@H]6CC[C@H](Oc7ccc(C#N)c(Cl)c7)CC6)nn4)CC5)cc31)C(=O)N(C1CCC(=O)NC1=O)C2=O (some centres unmarked) [Compound 195] | 10 to 25
7 | Cn1c2c(c3ccc(OCCCN4CC=C(c5ccc(C(=O)N[C@H]6CC[C@H](Oc7ccc(C#N)c(Cl)c7)CC6)nn5)CC4)cc31)C(=O)N(C1CCC(=O)NC1=O)C2=O (some centres unmarked) [Compound 196] | < 10
8 | Cn1c2c(c3ccc(OCCN4CC=C(c5ccc(C(=O)N[C@H]6CC[C@H](Oc7ccc(C#N)c(Cl)c7)CC6)nn5)CC4)cc31)C(=O)N(C1CCC(=O)NC1=O)C2=O (some centres unmarked) [Compound 197] | 10 to 25
9 | CC(COc1ccc2c3c(n(C)c2c1)C(=O)N(C1CCC(=O)NC1=O)C3=O)CN1CC=C(c2ccc(C(=O)N[C@H]3CC[C@H](Oc4ccc(C#N)c(Cl)c4)CC3)nn2)CC1 (some centres unmarked) [Compound 200] | 10 to 25
10 | Cn1c2c(c3ccc(OCCCN4CCN(c5ccc(C(=O)N[C@H]6CC[C@H](Oc7ccc(C#N)c(Cl)c7)CC6)nn5)CC4)cc31)C(=O)N(C1CCC(=O)NC1=O)C2=O (some centres unmarked) [Compound 207] | < 10
11 | Cn1c2c(c3ccc(OCCN4CCC(c5ccc(C(=O)N[C@H]6CC[C@H](Oc7ccc(C#N)c(Cl)c7)CC6)nn5)CC4)cc31)C(=O)N(C1CCC(=O)NC1=O)C2=O (some centres unmarked) [Compound 208] | 10 to 25
12 | Cn1c2c(c3ccc(OC4CCN(CC5CCN(c6ccc(C(=O)N[C@H]7CC[C@H](Oc8ccc(C#N)c(Cl)c8)CC7)nn6)CC5)CC4)cc31)C(=O)N(C1CCC(=O)NC1=O)C2=O (some centres unmarked) [Compound 215] | 10 to 25
13 | Cn1c2c(c3ccc(OC4CCN(CC5CCN(c6ccc(C(=O)N[C@H]7CC[C@@H](Oc8ccc(C#N)c(Cl)c8)CC7)nn6)CC5)CC4)cc31)C(=O)N(C1CCC(=O)NC1=O)C2=O (some centres unmarked) [Compound 216] | < 10
14 | Cn1c2c(c3ccc(OC4CCN(CC5CN(c6ccc(C(=O)N[C@H]7CC[C@H](Oc8ccc(C#N)c(Cl)c8)CC7)nn6)C5)CC4)cc31)C(=O)N(C1CCC(=O)NC1=O)C2=O (some centres unmarked) [Compound 217] | 10 to 25
15 | Cn1c2c(c3ccc(OC4CCN(CC5CCN(c6ccc(C(=O)N[C@H]7C(C)(C)[C@H](Oc8ccc(C#N)c(Cl)c8)C7(C)C)cc6)CC5)CC4)cc31)C(=O)N(C1CCC(=O)NC1=O)C2=O (some centres unmarked) [Compound 219] | 25 to 100
16 | Cn1c2c(c3ccc(OC4CCN(CC5CCN(c6ccc(C(=O)N[C@H]7C(C)(C)[C@H](Oc8ccc(C#N)c(Cl)c8)C7(C)C)nn6)CC5)CC4)cc31)C(=O)N(C1CCC(=O)NC1=O)C2=O (some centres unmarked) [Compound 221] | 10 to 25
17 | Cn1c2c(c3ccc(OC4CCN(CC5CCN(c6ccc(C(=O)N[C@H]7C(C)(C)[C@@H](Oc8ccc(C#N)c(Cl)c8)C7(C)C)cn6)CC5)CC4)cc31)C(=O)N(C1CCC(=O)NC1=O)C2=O (some centres unmarked) [Compound 222] | 10 to 25

Same assay, conditions: read-out: AR DC50 (concentration needed for 50% AR degradation); LNCaP.FGC cells, serial 10x dilutions from 100 nM

Row | Compound | DC50 [nM]
18 | CCn1c2c(c3ccc(OCCCN4CCN(c5ccc(C(=O)N[C@H]6CC[C@H](Oc7ccc(C#N)c(Cl)c7)CC6)nn5)CC4)cc31)C(=O)N(C1CCC(=O)NC1=O)C2=O (some centres unmarked) [Compound 29] | 10 to 25
19 | CCn1c2c(c3ccc(OCCN4CCN(c5ccc(C(=O)N[C@H]6CC[C@H](Oc7ccc(C#N)c(Cl)c7)CC6)nn5)CC4)cc31)C(=O)N(C1CCC(=O)NC1=O)C2=O (some centres unmarked) [Compound 33] | 10 to 25
20 | CCn1c2c(c3ccc(OCC(C)CN4CCN(c5ccc(C(=O)N[C@H]6CC[C@H](N(C)c7ccc(C#N)c(Cl)c7)CC6)nn5)CC4)cc31)C(=O)N(C1CCC(=O)NC1=O)C2=O (some centres unmarked) [Compound 193] | 25 to 100
21 | Cn1c2c(c3ccc(OCCCN4CCC5(CC4)CCN(c4ccc(C(=O)N[C@H]6CC[C@H](N(C)c7ccc(C#N)c(Cl)c7)CC6)nn4)CC5)cc31)C(=O)N(C1CCC(=O)NC1=O)C2=O (some centres unmarked) [Compound 198] | < 10
22 | Cn1c2c(c3ccc(OCCN4CCC5(CC4)CCN(c4ccc(C(=O)N[C@H]6CC[C@H](N(C)c7ccc(C#N)c(Cl)c7)CC6)nn4)CC5)cc31)C(=O)N(C1CCC(=O)NC1=O)C2=O (some centres unmarked) [Compound 199] | 10 to 25
23 | CCn1c2c(c3ccc(OCCCN4CC=C(c5ccc(C(=O)N[C@H]6CC[C@H](N(C)c7ccc(C#N)c(Cl)c7)CC6)nn5)CC4)cc31)C(=O)N(C1CCC(=O)NC1=O)C2=O (some centres unmarked) [Compound 201] | 10 to 25
24 | CCn1c2c(c3ccc(OCCN4CC=C(c5ccc(C(=O)N[C@H]6CC[C@H](N(C)c7ccc(C#N)c(Cl)c7)CC6)nn5)CC4)cc31)C(=O)N(C1CCC(=O)NC1=O)C2=O (some centres unmarked) [Compound 202] | 25 to 100
25 | CCn1c2c(c3ccc(OC4CCN(CC5CCN(c6ccc(C(=O)N[C@H]7CC[C@H](Oc8ccc(C#N)c(Cl)c8)CC7)nn6)CC5)CC4)cc31)C(=O)N(C1CCC(=O)NC1=O)C2=O (some centres unmarked) [Compound 203] | < 10
26 | CCn1c2c(c3ccc(OC4CCN(CC5CCN(c6ccc(C(=O)N[C@H]7CC[C@@H](Oc8ccc(C#N)c(Cl)c8)CC7)nn6)CC5)CC4)cc31)C(=O)N(C1CCC(=O)NC1=O)C2=O (some centres unmarked) [Compound 204] | 10 to 25
27 | CCn1c2c(c3ccc(OCCCN4CCN(c5ccc(C(=O)N[C@H]6CC[C@H](Oc7ccc(C#N)c(Cl)c7)CC6)nn5)CC4)cc31)C(=O)N(C1CCC(=O)NC1=O)C2=O (some centres unmarked) [Compound 205] | < 10
28 | CCn1c2c(c3ccc(OCCN4CCC(c5ccc(C(=O)N[C@H]6CC[C@H](Oc7ccc(C#N)c(Cl)c7)CC6)nn5)CC4)cc31)C(=O)N(C1CCC(=O)NC1=O)C2=O (some centres unmarked) [Compound 206] | 10 to 25
29 | CCn1c2c(c3ccc(OC(C)CCN4CCN(c5ccc(C(=O)N[C@H]6CC[C@H](Oc7ccc(C#N)c(Cl)c7)CC6)nn5)CC4)cc31)C(=O)N(C1CCC(=O)NC1=O)C2=O (some centres unmarked) [Compound 209] | 10 to 25
30 | CCn1c2c(c3ccc(OC4CCN(CC5CN(c6ccc(C(=O)N[C@H]7CC[C@H](Oc8ccc(C#N)c(Cl)c8)CC7)nn6)C5)CC4)cc31)C(=O)N(C1CCC(=O)NC1=O)C2=O (some centres unmarked) [Compound 210] | 10 to 25
31 | CCn1c2c(c3ccc(OC(C)CCN4CCC(c5ccc(C(=O)N[C@H]6CC[C@H](Oc7ccc(C#N)c(Cl)c7)CC6)nn5)CC4)cc31)C(=O)N(C1CCC(=O)NC1=O)C2=O (some centres unmarked) [Compound 211] | < 10
32 | CCn1c2c(c3ccc(OC4CCN(CC5CCN(c6ccc(C(=O)N[C@H]7C(C)(C)[C@H](Oc8ccc(C#N)c(Cl)c8)C7(C)C)nn6)CC5)CC4)cc31)C(=O)N(C1CCC(=O)NC1=O)C2=O (some centres unmarked) [Compound 212] | 25 to 100
33 | CCn1c2c(c3ccc(OC4CCN(CC5CCN(c6ccc(C(=O)N[C@H]7C(C)(C)[C@@H](Oc8ccc(C#N)c(Cl)c8)C7(C)C)nn6)CC5)CC4)cc31)C(=O)N(C1CCC(=O)NC1=O)C2=O (some centres unmarked) [Compound 213] | 10 to 25
34 | CCn1c2c(c3ccc(OC4CCN(CC5CCN(c6ccc(C(=O)N[C@H]7C(C)(C)[C@H](Oc8ccc(C#N)c(Cl)c8)C7(C)C)cc6)CC5)CC4)cc31)C(=O)N(C1CCC(=O)NC1=O)C2=O (some centres unmarked) [Compound 214] | > 100
35 | CCn1c2c(c3ccc(OCCCN4CCN(c5ncc(C(=O)N[C@H]6CC[C@H](Oc7ccc(C#N)c(Cl)c7)CC6)cn5)CC4)cc31)C(=O)N(C1CCC(=O)NC1=O)C2=O (some centres unmarked) [Compound 220] | 25 to 100
